Data: US11584763B2, “Chromenopyridine derivatives as phosphatidylinositol phosphate kinase inhibitors” (HIBERCELL, INC., priority 2017, dated 2023)

Experiments:
Format in all cases: biochemical
PIP4K2B = target: T1, PIP4K2B (Homo sapiens, UniProt P78356); assay: Trans-FI P kinase assay PIP4K2B (PIP4KtypeIIB inhibition assay); conditions: compounds listed under IC50 bin headings; 100 uM GTP; read-out: Trans-FI P kinase assays: PIP4K2B IC50
T1 construct: made in house; host or cells: E. coli
T1 sequence (P78356 1-416): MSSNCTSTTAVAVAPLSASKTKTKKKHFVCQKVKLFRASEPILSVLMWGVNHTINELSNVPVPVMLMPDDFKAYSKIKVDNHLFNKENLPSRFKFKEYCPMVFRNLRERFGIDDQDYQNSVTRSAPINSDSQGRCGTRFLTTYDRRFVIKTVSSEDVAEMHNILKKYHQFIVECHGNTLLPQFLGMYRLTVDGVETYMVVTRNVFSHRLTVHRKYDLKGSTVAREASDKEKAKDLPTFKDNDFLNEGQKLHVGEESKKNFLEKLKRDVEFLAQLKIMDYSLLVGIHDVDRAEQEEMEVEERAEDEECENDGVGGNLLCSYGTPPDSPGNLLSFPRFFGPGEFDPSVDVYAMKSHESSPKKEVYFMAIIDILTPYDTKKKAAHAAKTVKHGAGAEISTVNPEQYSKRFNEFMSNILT
Procedure, shortened: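 GST-tagged human PIP4K2B (5 nM, E. coli-expressed) preincubated 1 h at 27 C with compound (top 4.8 uM, 5% DMSO), then reacted 2 h with 100 uM GTP and 80 uM PI5P/DOPE vesicles in HEPES pH 7.3, MgCl2, Triton X-100. GDP detected by Transcreener FI fluorescence via calibration curve; IC50 from % activity vs log[inhibitor].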

PIP4K 2A [1] = target: T2, PIP4K 2A (Homo sapiens, UniProt P48426); assay: Kinase Assay PIP4K2 A (PIP4KtypeIIA inhibition assay); set-up: made in house; host or cells: E. coli; conditions: compounds listed under IC50 bin headings
T2 sequence (P48426 1-406): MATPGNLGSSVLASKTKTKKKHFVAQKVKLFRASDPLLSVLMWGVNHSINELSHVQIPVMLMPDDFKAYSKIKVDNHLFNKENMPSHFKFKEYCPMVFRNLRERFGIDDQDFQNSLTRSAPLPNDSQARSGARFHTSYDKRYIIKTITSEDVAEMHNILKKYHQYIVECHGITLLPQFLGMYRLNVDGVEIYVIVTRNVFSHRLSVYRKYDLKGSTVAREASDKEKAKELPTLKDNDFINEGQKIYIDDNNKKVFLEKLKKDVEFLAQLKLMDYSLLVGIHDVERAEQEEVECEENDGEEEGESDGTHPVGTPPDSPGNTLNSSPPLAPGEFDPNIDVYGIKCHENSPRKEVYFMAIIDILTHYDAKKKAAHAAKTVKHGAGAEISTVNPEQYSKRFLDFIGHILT
Excerpt: GST tagged PIP4KtypeIIA and B enzymes were overexpressed in E. Coli and purified to >80% homogeneity. Phosphatidyl inositol-5-phosphate (PI5P, Cat. #850152, Avanti Polar Lipids Inc.) was used as the lipid substrate and phosphatidyl ethanolamine (DOPE 18:1, Cat. #850725, Avanti Polar Lipids Inc.) was used as the carrier lipid for assays. Ultrapure ATP and GTP was purchased from Bellbrooke Labs. ADP Glo reagents were obtained from Promega. Transcreener FI reagent was obtained from Bellbrooke labs.
Enzyme preparation: GST-tagged PIP4KtypeIIA (5 uL, 1.43 mg/mL) was diluted (1:10) to 50 uL using HNE buffer. From the 1:10 diluted stock, a 6.4 uL aliquot was diluted further to 5 mL using HNE buffer to yield 5× enzyme stock (2.5 nM).
Lipid Preparation: In a 10 mL pyrex glass vial, 1 ug of PI5P and 1 ug of DOPE were suspended in 2.5 mL of HEPES buffer mix and 2.5 mL of H:E buffer. The contents were mixed and sonicated for 3 min to yield a translucent lipid stock.
Compound Preparation: Compounds were stored as 5 mM stocks in neat DMSO as room temperature in glass vials. 5 mM stocks were diluted to 2 mM and then serially diluted (3×) in neat DMSO in 96 well polypropylene plates. From the serially diluted stocks, 3 uL was delivered into 250 uL of 25% DMSO (in water) to generate 5× compound stocks. Typically, the highest compound conc. was 24 uM.
The assay volume was kept at 25 uL. To each well of the reaction plate, 10 uL of lipid stock (1:1 ratio PI5P:DOPE) was delivered. This was followed by the addition of 5 uL of compound in 25% DMSO. Then, to each well, 5 uL of 2.5 nM (5×) typeIIA enzyme was delivered. The contents were mixed well and incubated for 1 h at 27 C. After 1 h, reaction was initiated by adding 5 uL of 50 uM ATP and the contents were mixed well with a multi-channel pipetteman. The final concentration of the reagents are as follows: 50 mM HEPES, pH 7.3, 10 mM MgCl2, 20 mM NaCl, 0.01% v/v triton-X100, 5% DMSO, 10 uM ATP, 80 uM (2 ug) PI5P, 2 ug DOPE, and 0.5 nM PIP4KIIA. Typically, the highest conc. of compounds was 4.8 uM and the lowest conc. was 0.
After 1 hr, the reaction was quenched by adding 25 uL of ADP Glo reagent. The contents were incubated for 1 hr. Afterwards, 50 uL of kinase detection reagent was delivered. The contents were incubated for another hour. The luminescence was read using Molecular Devices Paradigm plate reader. […] The blanks were averaged and subtracted from all other wells. Using a calibration curve, RLU was converted to uM ADP (product). IC50 was calculated by plotting the residual activity (expressed as % No inhibitor control) vs. log [Inh. conc.]

PIP4K 2A [2] = target: T2, PIP4K 2A; assay: ADP-glo kinase assay PIP4K 2A; set-up: 4 nM PIP4K2A (full length protein, SignalChem); purchased SignalChem; conditions: compounds listed under IC50 bin headings
Procedure, shortened: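 Full-length PIP4K2A was pre-incubated 15 min at RT with compound in 20 mM MOPS pH 7.2, 25 mM MgCl2, 0.005% Tween 20. The enzyme mix held 4 nM kinase and 100 μM PI(5)P diC8, and ATP was added from a 60 μM solution. After 1 h at RT, ADP-Glo luminescence gave % inhibition versus DMSO, fitted to IC50 over 10 threefold dilutions.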

Row | IC50 (PIP4K2B) | IC50 (PIP4K 2A [1]) | IC50 (PIP4K 2A [2]) | SMILES
1 | 100 to 1000 nM | 1 to 10 nM | 1 to 10 nM | CC1Oc2cc(C(=O)N(C)C)ccc2-c2cnc(Nc3cccnc3)cc21 (stereo not drawn) [Example 31, N,N,5-trimethyl-3-(pyridin-3-ylamino)-5H-chromeno[4,3-c]pyridine-8-carboxamide]
2 | 100 to 1000 nM | 1 to 10 nM | 10 to 100 nM | CC1c2cc(Nc3cnc4c(c3)OCCO4)ncc2-c2ccc(N3CCCC3=O)cc2N1C (stereo not drawn) [Example 45, 1-(3-((2,3-dihydro-[1,4]dioxino[2,3-b]pyridin-7-yl)amino)-5,6-dimethyl-5,6-dihydrobenzo[c][2,6]naphthyridin-8-yl)pyrrolidin-2-one]
3 | 1 to 10 nM | ≤ 1 nM | 1 to 10 nM | CC1Oc2cc(C(=O)N(C)C)ccc2-c2cnc(Nc3cnc4c(c3)N(S(=O)(=O)C3CC3)CCO4)cc21 (stereo not drawn) [Example 72, 3-((1-(cyclopropylsulfonyl)-2,3-dihydro-1H-pyrido[2,3-b][1,4]oxazin-7-yl)amino)-N,N,5-trimethyl-5H-chromeno[4,3-c]pyridine-8-carboxamide]
4 | > 1000 nM | 10 to 100 nM | 100 to 1000 nM | CC1Oc2cc(N3CCCC3=O)ccc2-c2cnc(Nc3cncc(C(F)(F)F)c3)cc21 (stereo not drawn) [Example 81, 1-(5-methyl-3-((5-(trifluoromethyl)pyridin-3-yl)amino)-5H-chromeno[4,3-c]pyridin-8-yl)pyrrolidin-2-one]
5 | 10 to 100 nM | ≤ 1 nM | 1 to 10 nM | CC1Oc2cc(N3CCCC3=O)ccc2-c2cnc(Nc3cncc(N(C4CC4)S(C)(=O)=O)c3)cc21 (stereo not drawn) [Example 51, N-cyclopropyl-N-(5-((5-methyl-8-(2-oxopyrrolidin-1-yl)-5H-chromeno[4,3-c]pyridin-3-yl)amino)pyridin-3-yl)methanesulfonamide]
6 | 1 to 10 nM | 1 to 10 nM | ≤ 1 nM | O=C1CCCN1c1ccc2c(c1)OC1(COC1)c1cc(Nc3cnc4c(c3)N3C(=O)CC[C@H]3CO4)ncc1-2 [Example 194, (S)-2-((8-(2-oxopyrrolidin-1-yl)spiro[chromeno[4,3-c]pyridine-5,3′-oxetan]-3-yl)amino)-6,6a,7,8-tetrahydro-9H-pyrido[2,3-b]pyrrolo[1,2-d][1,4]oxazin-9-one]
7 | 100 to 1000 nM | 1 to 10 nM | 1 to 10 nM | CC1Oc2cc(N3CCCC3=O)ccc2-c2cnc(Nc3cnc4nccnc4c3)cc21 (stereo not drawn) [Example 63, 1-(5-methyl-3-(pyrido[2,3-b]pyrazin-7-ylamino)-5H-chromeno[4,3-c]pyridin-8-yl)pyrrolidin-2-one]

Continued, compound first:

Row | SMILES | IC50 (PIP4K2B) | IC50 (PIP4K 2A [1]) | IC50 (PIP4K 2A [2])
8 | CC1Oc2cc(C(=O)N(C)C)ccc2-c2cnc(Nc3cncc(N4CCCC4=O)c3)cc21 (stereo not drawn) [Example 32, N,N,5-trimethyl-3-((5-(2-oxopyrrolidin-1-yl)pyridin-3-yl)amino)-5H-chromeno[4,3-c]pyridine-8-carboxamide] | 10 to 100 nM | ≤ 1 nM | 1 to 10 nM
9 | COCCC(=O)N1CCN(c2cncc(Nc3cc4c(cn3)-c3cc(F)c(N5CCCC5=O)cc3OC4(C)C)c2)CC1 [Example 173, 1-(9-fluoro-3-((5-(4-(3-methoxypropanoyl)piperazin-1-yl)pyridin-3-yl)amino)-5,5-dimethyl-5H-chromeno[4,3-c]pyridin-8-yl)pyrrolidin-2-one] | 10 to 100 nM | 1 to 10 nM | 1 to 10 nM
10 | CC1Oc2cc(N3CCCC3=O)ccc2-c2cnc(Nc3cncc(N4CCOCC4=O)c3)cc21 (stereo not drawn) [Example 95, 4-(5-((5-methyl-8-(2-oxopyrrolidin-1-yl)-5H-chromeno[4,3-c]pyridin-3-yl)amino)pyridin-3-yl)morpholin-3-one] | 100 to 1000 nM | 1 to 10 nM | 10 to 100 nM
11 | CC1Oc2cc(N3CCCC3=O)ccc2-c2cnc(Nc3cnc4c(c3)N(C(=O)C(C)(C)C)CCO4)cc21 (stereo not drawn) [Example 86, 1-(5-methyl-3-((1-pivaloyl-2,3-dihydro-1H-pyrido[2,3-b][1,4]oxazin-7-yl)amino)-5H-chromeno[4,3-c]pyridin-8-yl)pyrrolidin-2-one] | 1 to 10 nM | ≤ 1 nM | ≤ 1 nM
12 | CC1Oc2cc(N3CCCC3=O)ccc2-c2cnc(Nc3cnc4cccnc4c3)cc21 (stereo not drawn) [Example 64, 1-(3-((1,5-naphthyridin-3-yl)amino)-5-methyl-5H-chromeno[4,3-c]pyridin-8-yl)pyrrolidin-2-one] | 100 to 1000 nM | 1 to 10 nM | 10 to 100 nM
13 | CC1Oc2cc(C(=O)N(C)C)ccc2-c2cnc(Nc3cnc4c(c3)N(C(=O)C3CC3)CCO4)cc21 (stereo not drawn) [Example 68, 3-((1-(cyclopropanecarbonyl)-2,3-dihydro-1H-pyrido[2,3-b][1,4]oxazin-7-yl)amino)-N,N,5-trimethyl-5H-chromeno[4,3-c]pyridine-8-carboxamide] | 1 to 10 nM | ≤ 1 nM | ≤ 1 nM
14 | CC1(C)Oc2cc(N3CCCC3=O)c(F)cc2-c2cnc(Nc3cnc4c(c3)N3C(=O)CC[C@H]3CO4)cc21 [Example 148, (S)-2-((9-fluoro-5,5-dimethyl-8-(2-oxopyrrolidin-1-yl)-5H-chromeno[4,3-c]pyridin-3-yl)amino)-6,6a,7,8-tetrahydro-9H-pyrido[2,3-b]pyrrolo[1,2-d][1,4]oxazin-9-one] | 1 to 10 nM | ≤ 1 nM | ≤ 1 nM
15 | O=C1CCCN1c1ccc2c(c1)OCc1cc(Nc3cnc4c(c3)N(C(=O)C3CC3)CCO4)ncc1-2 [Example 76, 1-(3-((1-(cyclopropanecarbonyl)-2,3-dihydro-1H-pyrido[2,3-b][1,4]oxazin-7-yl)amino)-5H-chromeno[4,3-c]pyridin-8-yl)pyrrolidin-2-one] | 1 to 10 nM | ≤ 1 nM | ≤ 1 nM
16 | CC1Oc2cc(C(=O)N(C)C)ccc2-c2cnc(Nc3cnc4c(c3)N3C(=O)CC[C@H]3CO4)cc21 (stereo partly drawn) [Example 33, N,N,5-trimethyl-3-(((S)-9-oxo-6a,7,8,9-tetrahydro-6H-pyrido[2,3-b]pyrrolo[1,2-d][1,4]oxazin-2-yl)amino)-5H-chromeno[4,3-c]pyridine-8-carboxamide] | 1 to 10 nM | ≤ 1 nM | 1 to 10 nM
